EP2366702A1, “New oxadiazole derivatives” (Almirall, S.A., priority 2010, dated 2011)

What follows are compounds tested against S1P1 (Homo sapiens, UniProt P21453) (assay: 35S-GTPyS binding assay). Settings: membranes; 10µM S1P used as 100% maximum efficacy; 90 min at room temperature.
S1P1, sequence (P21453 whole entry, species assumed): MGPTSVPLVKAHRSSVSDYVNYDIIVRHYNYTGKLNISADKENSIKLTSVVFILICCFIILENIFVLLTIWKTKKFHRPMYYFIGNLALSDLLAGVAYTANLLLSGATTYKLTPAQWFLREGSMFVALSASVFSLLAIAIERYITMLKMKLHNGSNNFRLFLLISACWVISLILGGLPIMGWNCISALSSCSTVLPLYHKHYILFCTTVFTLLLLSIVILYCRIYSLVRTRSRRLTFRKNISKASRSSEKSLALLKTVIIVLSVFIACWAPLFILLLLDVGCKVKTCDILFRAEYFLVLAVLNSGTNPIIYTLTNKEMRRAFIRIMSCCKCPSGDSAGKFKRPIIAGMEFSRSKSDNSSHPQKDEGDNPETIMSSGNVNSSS
Assay type: biochemical
Procedure: The effect of the compounds was measured using a 35S-GTPyS binding assay. Briefly, membranes were incubated in a buffer containing 20 mM HEPES pH 7.4, 100 mM NaCl, 10 mM MgCl2, 10µM GDP, 50µg/ml saponin and 0.2% fatty acid-free BSA at various concentrations (0.1nM-10µM) and 0.1nM 35S-GTPyS. 10µM S1P was used as 100% maximum efficacy. The assay was incubated for 90 min at room temperature with gentle mixing, and terminated by filtrating the reaction mixture through GF/C filter plates using the Manifold Filtration System. The filters were immediately washed with sodium phosphate pH 7.4 buffers. After drying the filter plate's scintillant liquid were added to each well and 35S-GTPyS binding was measured on a Trilux Scintillation Counter.
Compound `Cc1cc(-c2noc(-c3nn(C)c4c3CCC(C)(C)C4)n2)cc(C)c1CCC(C)(C)O` [Example 17, 4-{2,6-dimethyl-4-[5-(1,6,6-trimethyl-4,5,6,7-tetrahydro-1H-indazol-3-yl)-1,2,4-oxadiazol-3-yl]phenyl}-2-methylbutan-2-ol] has an EC50 of 37.5 nM. Work on `Cc1cc(-c2noc(-c3nn(C)c4c3CCC(C)(C)C4)n2)cc(C)c1CCn1cc(C(=O)O)cn1` [Example 22, 1-(2-{2,6-dimethyl-4-[5-(1,6,6-trimethyl-4,5,6,7-tetrahydro-1H-indazol-3-yl)-1,2,4-oxadiazol-3-yl]phenyl}ethyl)-1H-pyrazole-4-carboxylic acid] yielded an EC50 of 6.37 nM. With `Cc1cc(-c2noc(-c3nn(C)c4c3CCC(C)(C)C4)n2)cc(C)c1CCn1nccc1C(=O)O` [Example 24, 1-(2-{2,6-dimethyl-4-[5-(1,6,6-trimethyl-4,5,6,7-tetrahydro-1H-indazol-3-yl)-1,2,4-oxadiazol-3-yl]phenyl}ethyl)-1H-pyrazole-5-carboxylic acid] the EC50 was 10.3 nM. Compound `Cc1cc(-c2noc(-c3nn(C)c4c3CCC(C)(C)C4)n2)cc(C)c1CCNC(=O)CN` [Example 2, N-1-(2-{2,6-dimethyl-4-[5-(1,6,6-trimethyl-4,5,6,7-tetrahydro-1H-indazol-3-yl)-1,2,4-oxadiazol-3-yl]phenyl}ethyl)glycinamide] has an EC50 of 1.99 nM. In the case of `Cc1cc(-c2noc(-c3nn(C)c4c3CCC(C)(C)C4)n2)cc(C)c1CCP(=O)(O)O` [Example 21, (2-{2,6-dimethyl-4-[5-(1,6,6-trimethyl-4,5,6,7-tetrahydro-1H-indazol-3-yl)-1,2,4-oxadiazol-3-yl]phenyl}ethyl)phosphonic acid], the EC50 is reported as 3.08 nM. `Cc1cc(-c2noc(-c3nn(C)c4c3CCC(C)(C)C4)n2)cc(C)c1CCn1cncn1` [Example 16, 3-(3-{3,5-dimethyl-4-[2-(1H-1,2,4-triazol-1-yl)ethyl]phenyl}-1,2,4-oxadiazol-5-yl)-1,6,6-trimethyl-4,5,6,7-tetrahydro-1H-indazole] gave an EC50 of 12.1 nM. Work on `Cc1cc(-c2noc(-c3nn(C)c4c3CCC(C)(C)C4)n2)cc(C)c1CCNCCn1cncn1` [Example 6, (2-{2,6-dimethyl-4-[5-(1,6,6-trimethyl-4,5,6,7-tetrahydro-1H-indazol-3-yl)-1,2,4-oxadiazol-3-yl]phenyl}ethyl)[2-(1H-1,2,4-triazol-1-yl)ethyl]amine] yielded an EC50 of 19.2 nM.
